ChEMBL document CHEMBL1833871, “3D QSAR and docking study of flavone derivatives as potent inhibitors of influenza H1N1 virus neuraminidase” (Bioorg Med Chem Lett, 2011)

Target: Neuraminidase (Influenza A virus (A/Puerto Rico/8/1934(H1N1)), UniProt P03468)
Assay: Inhibition of influenza A virus A/PR/8/34(H1N1) neuraminidase assessed as fluorescent product using MUNANA as substrate after 60 mins by fluorescence analysis

Neuraminidase (Influenza A virus (A/Puerto Rico/8/1934(H1N1)), UniProt P03468), sequence (P03468 whole entry): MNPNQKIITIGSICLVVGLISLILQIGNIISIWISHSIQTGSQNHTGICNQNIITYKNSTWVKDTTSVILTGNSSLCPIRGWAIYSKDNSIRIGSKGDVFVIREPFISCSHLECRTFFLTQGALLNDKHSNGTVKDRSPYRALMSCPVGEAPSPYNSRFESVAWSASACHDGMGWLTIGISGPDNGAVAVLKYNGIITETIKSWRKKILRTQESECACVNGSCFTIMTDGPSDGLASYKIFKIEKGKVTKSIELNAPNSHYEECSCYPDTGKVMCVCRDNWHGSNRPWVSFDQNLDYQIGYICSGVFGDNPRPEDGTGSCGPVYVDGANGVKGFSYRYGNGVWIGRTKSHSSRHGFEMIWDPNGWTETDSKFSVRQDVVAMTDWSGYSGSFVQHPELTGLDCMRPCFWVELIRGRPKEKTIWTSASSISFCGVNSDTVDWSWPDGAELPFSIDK

SMILES | IC50 [µM]
CN1CCN(Cc2c(O)cc(O)c3c(=O)cc(-c4ccc(O)cc4)oc23)CC1 | 148
O=c1cc(-c2ccccc2)oc2c(CN3CCN(CCO)CC3)c(O)c(O)c(O)c12 | 276
O=c1cc(-c2ccccc2)oc2c(CN3CCC(O)CC3)c(O)c(O)c(O)c12 | 91.5
CC1CCCCN1Cc1c(O)c(O)c(O)c2c(=O)cc(-c3ccccc3)oc12 (stereo not given) | 99.7
C[C@@H]1COC[C@H](C)N1Cc1c(O)c(O)c(O)c2c(=O)cc(-c3ccccc3)oc12 | 591
O=c1cc(-c2ccccc2)oc2c(CN3CCC(CO)CC3)c(O)c(O)c(O)c12 | 470
O=c1cc(-c2ccccc2)oc2c(CN3CCCC(O)C3)c(O)c(O)c(O)c12 (stereo not given) | 68.2
O=c1cc(-c2ccccc2)oc2c(CN3CCCC3)c(O)cc(O)c12 | 182
CN1CCN(Cc2c(O)cc(O)c3c(=O)cc(-c4ccccc4)oc23)CC1 | 431
O=c1cc(-c2ccccc2)oc2c(CN3CCOCC3)c(O)cc(O)c12 | 448
O=c1cc(-c2ccccc2)oc2c(CN3CCCC(O)C3)c(O)cc(O)c12 (stereo not given) | 259
O=c1cc(-c2ccccc2)oc2c(CN3CCC(O)CC3)c(O)cc(O)c12 | 295
O=c1cc(-c2ccccc2)oc2c(CN3CCN(CCO)CC3)c(O)cc(O)c12 | 135
O=c1cc(-c2ccccc2)oc2c(CN3CCC(CO)CC3)c(O)cc(O)c12 | 83.7
O=c1cc(-c2ccc(O)c(O)c2)oc2c(CN3CCCCC3)c(O)cc(O)c12 | 62.9
O=c1cc(-c2ccc(O)c(O)c2)oc2c(CN3CCCC(O)C3)c(O)cc(O)c12 (stereo not given) | 63.6
O=c1cc(-c2ccc(O)c(O)c2)oc2c(CN3CCC(CO)CC3)c(O)cc(O)c12 | 64.2
O=c1cc(-c2ccc(O)c(O)c2)oc2c(CN3CCOCC3)c(O)cc(O)c12 | 81.9

SMILES | IC50 [µM]
CN1CCN(Cc2c(O)cc(O)c3c(=O)cc(-c4ccc(O)c(O)c4)oc23)CC1 | 53.8
C[C@@H]1COC[C@H](C)N1Cc1c(O)cc(O)c2c(=O)cc(-c3ccc(O)c(O)c3)oc12 | 43.5
CC1CCCCN1Cc1c(O)cc(O)c2c(=O)cc(-c3ccc(O)c(O)c3)oc12 (stereo not given) | 161
O=c1cc(-c2ccc(O)cc2)oc2c(CN3CCC(O)CC3)c(O)cc(O)c12 | 168
O=c1cc(-c2ccc(O)cc2)oc2c(CN3CCOCC3)c(O)cc(O)c12 | 50.5
CC1CCCN(Cc2c(O)cc(O)c3c(=O)cc(-c4ccc(O)cc4)oc23)C1 (stereo not given) | 52.5
O=c1cc(-c2ccc(O)cc2)oc2c(CN3CCN(Cc4ccccc4)CC3)c(O)cc(O)c12 | 48.5
O=c1cc(-c2ccc(O)cc2)oc2c(CN3[C@H](O)COC[C@@H]3O)c(O)cc(O)c12 | 64
O=c1cc(-c2ccc(O)cc2)oc2c(CN3CCC(Cc4ccccc4)CC3)c(O)cc(O)c12 | 46.1
O=c1cc(-c2ccc(O)cc2)oc2c(CN3CCCC(O)C3)c(O)cc(O)c12 (stereo not given) | 45.3
O=c1cc(-c2ccc(O)cc2)oc2c(CN3CCC(CO)CC3)c(O)cc(O)c12 | 40.9
O=c1cc(-c2ccc(O)cc2)oc2c(CN3CCCC3)c(O)cc(O)c12 | 44.5
CC1CCN(Cc2c(O)cc(O)c3c(=O)cc(-c4ccc(O)cc4)oc23)CC1 | 164
O=c1cc(-c2ccc(O)cc2)oc2c(CN3CCC[C@H]3CO)c(O)cc(O)c12 | 49.7
O=c1cc(-c2ccccc2)oc2c(CN3CCCC3)c(O)c(O)c(O)c12 | 107
O=c1cc(-c2ccccc2)oc2c(CN3CCCCC3)c(O)c(O)c(O)c12 | 104
CN1CCN(Cc2c(O)c(O)c(O)c3c(=O)cc(-c4ccccc4)oc23)CC1 | 302
